Literature values as cited in patent US20260158011A1 (Achieve Life Sciences, Inc., priority 2023, published 2026).

Target: neuronal alpha4, beta2 (α4β2) receptors (Homo sapiens, UniProt P17787+P43681)
Settings: background studies; cited from earlier work

Sequence of neuronal alpha4, beta2 (α4β2) receptors (P43681 29-627 limits assumed): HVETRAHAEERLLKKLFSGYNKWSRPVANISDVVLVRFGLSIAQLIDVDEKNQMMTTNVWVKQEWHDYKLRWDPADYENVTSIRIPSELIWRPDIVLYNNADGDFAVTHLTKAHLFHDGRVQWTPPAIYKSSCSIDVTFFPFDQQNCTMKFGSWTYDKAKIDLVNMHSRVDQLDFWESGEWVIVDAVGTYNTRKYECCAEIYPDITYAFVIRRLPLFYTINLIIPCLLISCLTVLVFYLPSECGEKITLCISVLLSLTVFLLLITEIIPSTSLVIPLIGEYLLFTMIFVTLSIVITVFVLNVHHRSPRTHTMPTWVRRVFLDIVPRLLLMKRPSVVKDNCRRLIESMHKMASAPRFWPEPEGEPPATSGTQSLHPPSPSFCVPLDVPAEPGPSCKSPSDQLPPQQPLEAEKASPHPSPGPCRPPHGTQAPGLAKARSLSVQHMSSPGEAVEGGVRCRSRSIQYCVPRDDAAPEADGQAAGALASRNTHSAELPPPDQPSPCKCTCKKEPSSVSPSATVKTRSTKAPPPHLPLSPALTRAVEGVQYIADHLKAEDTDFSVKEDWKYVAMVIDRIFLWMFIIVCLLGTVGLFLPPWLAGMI
Sequence of neuronal alpha4, beta2 (α4β2) receptors (P17787 26-502): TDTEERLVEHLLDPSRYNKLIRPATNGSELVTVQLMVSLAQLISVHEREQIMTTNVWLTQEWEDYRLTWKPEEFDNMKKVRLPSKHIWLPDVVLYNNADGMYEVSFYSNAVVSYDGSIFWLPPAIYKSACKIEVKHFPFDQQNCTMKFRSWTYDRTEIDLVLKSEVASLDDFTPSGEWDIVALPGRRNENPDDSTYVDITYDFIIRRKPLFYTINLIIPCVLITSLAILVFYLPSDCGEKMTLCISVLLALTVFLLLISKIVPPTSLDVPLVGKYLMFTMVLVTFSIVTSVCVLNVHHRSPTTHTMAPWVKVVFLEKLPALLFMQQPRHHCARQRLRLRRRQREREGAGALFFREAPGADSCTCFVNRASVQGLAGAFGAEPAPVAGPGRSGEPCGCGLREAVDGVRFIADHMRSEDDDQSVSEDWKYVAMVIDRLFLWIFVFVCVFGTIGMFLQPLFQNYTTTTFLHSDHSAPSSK

O=c1cccc2n1C[C@@H]1CNC[C@H]2C1 [cytisine, (−)-Cytisine]
Binding to α4β2 receptors: bind strongly and preferentially
